As a reminder, the Kd is the free concentration of one partner at which half of the binding sites on the other are occupied at equilibrium, for simple one-to-one binding. Read a low Kd as tighter binding.

Assay [1] addresses T1, CF Im25 (25 kDa subunit of human cleavage factor Im; CPSF5; NUDT21) (Homo sapiens, UniProt O43809). Briefly: steady-state tryptophan fluorescence titration. In kind it is binding.
For assay [2], the target named is T1, CF Im25 (25 kDa subunit of human cleavage factor Im; CPSF5; NUDT21). Briefly: […] Å crystal structure. The format is binding.

T1 sequence (O43809 whole entry): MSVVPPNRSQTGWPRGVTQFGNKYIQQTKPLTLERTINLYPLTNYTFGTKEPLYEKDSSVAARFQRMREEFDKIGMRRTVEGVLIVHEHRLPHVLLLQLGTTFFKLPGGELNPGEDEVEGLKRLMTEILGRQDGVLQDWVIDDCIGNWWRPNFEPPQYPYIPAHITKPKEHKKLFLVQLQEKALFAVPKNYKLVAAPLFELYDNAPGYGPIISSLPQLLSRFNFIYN

As for `Nc1ncnc2c1ncn2[C@@H]1O[C@H](COP(=O)(O)OP(=O)(O)OP(=O)(O)O)[C@@H](O)[C@H]1O` [ATP], binding in assay [1] was characterised by a dissociation constant (Kd) of 1530 ± 180 µM.

In the case of `Nc1ncnc2c1ncn2[C@@H]1O[C@H](COP(=O)(O)OP(=O)(O)OP(=O)(O)OP(=O)(O)OC[C@H]2O[C@@H](n3cnc4c(N)ncnc43)[C@H](O)[C@@H]2O)[C@@H](O)[C@H]1O` [Ap4A], binding in assay [2] was put at a Kd of 2.44 ± 0.49 µM.
